Assay results from patent US20030144308A1, “Fructose 1,6-bisphosphatase inhibitors” (priority 2001, published 2003).

How the values were obtained:
[1] = test system: transplanted human mammary carcinoma which expresses epidermal growth factor receptor tyrosine kinase (EGFR); conditions: athymic nude mice; cited from earlier work
[2] = test system: another carcinoma which does not express the EGF receptor; conditions: mouse, in vivo; cited from earlier work
[3] = biological target: recombinant human F16BPase (Homo sapiens, UniProt P09467); conditions: read-out: IC50 against the human enzyme; allosteric inhibitor; 40 minutes at room temperature without preincubation of compound with enzyme
Chain of recombinant human F16BPase (P09467 whole entry): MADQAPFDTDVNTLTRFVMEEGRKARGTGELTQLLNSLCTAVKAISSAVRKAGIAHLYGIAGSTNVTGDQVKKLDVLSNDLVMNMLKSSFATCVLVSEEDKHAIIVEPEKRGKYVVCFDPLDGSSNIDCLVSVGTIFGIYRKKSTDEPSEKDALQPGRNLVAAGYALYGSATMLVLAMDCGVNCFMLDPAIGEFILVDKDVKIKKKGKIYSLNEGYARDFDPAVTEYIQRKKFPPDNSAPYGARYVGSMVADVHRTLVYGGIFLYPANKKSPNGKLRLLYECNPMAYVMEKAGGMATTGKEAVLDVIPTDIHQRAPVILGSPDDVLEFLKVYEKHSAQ
Description: Fructose-1,6-bisphosphatase Enzyme Assay: Fructose-1,6-bisphosphatase (F16BP) is assayed by measuring its ability to hydrolyze inorganic phosphate from fructose-1,6-bisphosphate using a modification of a reported method (Biochem. J. 1994, 298, 395). […] The final solution consists of 50 mM HEPES (catalog #H7523, Sigma Chemical Company, PO Box 14508, St. Louis, Mo. 63178) pH=7.2, 100 mM KCl (Sigma catalog #P3911), 2 mM MgCI2 (Sigma catalog #M9272), 2 mM EGTA (Sigma catalog #E0396), 1 mM DTT (Sigma atalog #D5545), and 500 1 μM fructose-1,6-bisphosphate (Sigma catalog #752-1). The solution is incubated for 40 minutes at room temperature without preincubation of compound with enzyme. The phosphate released by the enzyme is measured spectrophotometrically using a Titertek Multiscann MCC 340 (Titertek, 330 Wynn Drive, Huntsville, Ala. 35805) at 620 nm, after allowing the phosphate to form a complex for 10 minutes after the addition of 150 μL of ammonium molybdate/malachite green (AM/MG) solution. To prepare the AM/MG solution, one volume of 4.2% ammonium molybdate (w/v, Sigma catalog #A7302) in 4 molar aqueous hydrochloric acid is added to three volumes of 0.045% malachite green (w/v, Sigma catalog #M9636) and 0.01% Tween®-20 (v/v, Sigma catalog #P1379) in water. […]

In the case of `CCOc1cc2nc(CCl)nc(Nc3cccc(-c4csc(C)n4)c3)c2cc1OCC.Cl`, the melting point is reported as 252 to 256 °C.
In the case of `O=CN/C=C/c1cc(O)ccc1O` [erbstatin], the “growth of transplanted human mammary carcinoma expressing EGFR” value [1] is listed as “selectively attenuates the growth” and the “growth of carcinoma which does not express the EGF receptor” value [2] is listed as “without effect on the growth”.
In the case of `Nc1ncnc2c1ncn2[C@@H]1O[C@H](COP(=O)(O)O)[C@@H](O)[C@H]1O` [AMP, adenosine 5′-monophosphate], the IC50 [3] is reported as 800 nM.
